Assay results published in US7250442B2, “Dihydroindol-2-one derivatives as steroid hormone nuclear receptor modulators” (Eli Lilly and Company, priority 2003, dated 2007).

Target: T1, human MR (Homo sapiens, UniProt P08235)
T1 construct: The full length human MR gene is cloned from a human kidney or human brain cDNA library; made in house; host or cells: Sf9 insect cells (baculovirus, pAcHLT transfer vector)
T1 sequence (P08235 1-984): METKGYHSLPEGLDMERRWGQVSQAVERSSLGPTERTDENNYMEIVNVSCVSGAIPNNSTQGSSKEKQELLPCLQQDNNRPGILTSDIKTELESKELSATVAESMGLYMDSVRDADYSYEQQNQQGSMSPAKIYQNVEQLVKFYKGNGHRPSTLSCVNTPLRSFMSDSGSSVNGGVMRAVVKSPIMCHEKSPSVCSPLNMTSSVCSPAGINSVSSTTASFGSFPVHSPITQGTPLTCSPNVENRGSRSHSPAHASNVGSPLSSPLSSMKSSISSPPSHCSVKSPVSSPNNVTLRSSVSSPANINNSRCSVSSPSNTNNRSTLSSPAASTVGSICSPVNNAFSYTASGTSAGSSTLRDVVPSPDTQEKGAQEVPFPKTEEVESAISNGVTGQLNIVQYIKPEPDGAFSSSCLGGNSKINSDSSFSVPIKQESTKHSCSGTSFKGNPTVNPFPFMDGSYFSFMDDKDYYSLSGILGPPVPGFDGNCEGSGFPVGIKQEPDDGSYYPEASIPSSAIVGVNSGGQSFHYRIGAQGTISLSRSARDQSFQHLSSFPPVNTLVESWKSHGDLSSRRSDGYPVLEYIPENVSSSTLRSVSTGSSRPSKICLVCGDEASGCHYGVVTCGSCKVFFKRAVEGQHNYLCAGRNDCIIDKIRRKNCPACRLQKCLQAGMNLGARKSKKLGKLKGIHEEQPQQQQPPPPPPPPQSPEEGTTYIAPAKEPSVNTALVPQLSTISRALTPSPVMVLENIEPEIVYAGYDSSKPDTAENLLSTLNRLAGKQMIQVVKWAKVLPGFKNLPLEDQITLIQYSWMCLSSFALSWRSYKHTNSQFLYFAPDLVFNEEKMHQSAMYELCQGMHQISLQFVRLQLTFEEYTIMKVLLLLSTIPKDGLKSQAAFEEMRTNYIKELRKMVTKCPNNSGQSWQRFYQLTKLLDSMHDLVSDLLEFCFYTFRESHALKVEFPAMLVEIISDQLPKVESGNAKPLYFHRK
Test: Mineralocorticoid Receptor Binding Assay ([3H]-aldosterone displacement)
Settings: full length human MR expressed in Sf9 cells, 0.5 nM [3H]-aldosterone
Method in brief: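 Full-length human MR expressed in Sf9 cells; lysate (20-25 μg protein) incubated with 0.5 nM [3H]-aldosterone and test compound in molybdate/Tris/phosphate/glycerol buffer pH 7.5, 16 h at 4 °C. Bound ligand measured by filtration and scintillation counting; IC50 converted to Ki via Cheng-Prusoff.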

Ki, ≤ 500 nM:
Cc1cc(C2(c3cc(C)c(O)c(C)c3)C(=O)N(c3ccccc3)c3ccccc32)cc(C)c1O [Example 126, 3,3-Bis-(4-hydroxy-3,5-dimethyl-phenyl)-1-phenyl-1,3-dihydro-indol-2-one]
Cc1cc(C2(c3cc(C)c(O)c(C)c3)C(=O)N(c3cccc(C(F)(F)F)c3)c3ccccc32)cc(C)c1O [Example 127, 3,3-Bis-(4-hydroxy-3,5-dimethyl-phenyl)-1-(3-trifluoromethyl-phenyl)-1,3-dihydro-indol-2-one]
Cc1cc(C2(c3cc(C)c(O)c(C)c3)C(=O)N(c3ccccc3Cl)c3ccccc32)cc(C)c1O [Example 129, 1-(2-Chloro-phenyl)-3,3-bis-(4-hydroxy-3,5-dimethyl-phenyl)-1,3-dihydro-indol-2-one]
Cc1cc(C2(c3cc(C)c(O)c(C)c3)C(=O)N(c3cccc(F)c3)c3ccccc32)cc(C)c1O [Example 130, 1-(3-Fluoro-phenyl)-3,3-bis-(4-hydroxy-3,5-dimethyl-phenyl)-1,3-dihydro-indol-2-one]
Cc1cc(C2(c3cc(C)c(O)c(C)c3)C(=O)N(c3ccc(C(F)(F)F)cc3)c3ccccc32)cc(C)c1O [Example 131, 3,3-Bis-(4-hydroxy-3,5-dimethyl-phenyl)-1-(4-trifluoromethyl-phenyl)-1,3-dihydro-indol-2-one]
Cc1ccccc1N1C(=O)C(c2cc(C)c(O)c(C)c2)(c2cc(C)c(O)c(C)c2)c2ccccc21 [Example 132, 3,3-Bis-(4-hydroxy-3,5-dimethyl-phenyl)-1-o-tolyl-1,3-dihydro-indo 1-2-one]
Cc1cccc(N2C(=O)C(c3cc(C)c(O)c(C)c3)(c3cc(C)c(O)c(C)c3)c3ccccc32)c1 [Example 133, 3,3-Bis-(4-hydroxy-3,5-dimethyl-phenyl)-1-m-tolyl-1,3-dihydro-indol-2-one]
Cc1cc(C2(c3cc(C)c(O)c(C)c3)C(=O)N(c3ccncc3)c3ccccc32)cc(C)c1O [Example 136, 3,3-Bis-(4-hydroxy-3,5-dimethyl-phenyl)-1-pyridin-4-yl-1,3-dihydro-indol-2-one]
CCOc1cccc(N2C(=O)C(c3cc(C)c(O)c(C)c3)(c3cc(C)c(O)c(C)c3)c3ccccc32)c1 [Example 137, 1-(3-Ethoxy-phenyl)-3,3-bis-(4-hydroxy-3,5-dimethyl-phenyl)-1,3-dihydro-indol-2-one]
Cc1cc(C2(c3cc(C)c(O)c(C)c3)C(=O)N(c3cccc(C(C)C)c3)c3ccccc32)cc(C)c1O [Example 138, 3,3-Bis-(4-hydroxy-3,5-dimethyl-phenyl)-1-(3-isopropyl-phenyl)-1,3-dihydro-indol-2-one]
COc1ccc(N2C(=O)C(c3cc(C)c(O)c(C)c3)(c3cc(C)c(O)c(C)c3)c3ccccc32)cc1OC [Example 140, 1-(3,4-Dimethoxy-phenyl)-3,3-bis-(4-hydroxy-3,5-dimethyl-phenyl)-1,3-dihydro-indol-2-one]
COC(=O)c1cccc(-c2noc(CN3C(=O)C(c4cc(C)c(O)c(C)c4)(c4cc(C)c(O)c(C)c4)c4ccccc43)n2)c1 [Example 141, 3-{5-[3,3-Bis-(4-hydroxy-3,5-dimethyl-phenyl)-2-oxo-2,3-dihydro-indol-1-ylmethyl]-[1,2,4]oxadiazol-3-yl}-benzoic acid methyl ester]
COc1ccc(-c2noc(CN3C(=O)C(c4cc(C)c(O)c(C)c4)(c4cc(C)c(O)c(C)c4)c4ccccc43)n2)cc1 [Example 142, 3,3-Bis-(4-hydroxy-3,5-dimethyl-phenyl)-1-[3-(4-methoxy-phenyl)-[1,2,4]oxadiazol-5-ylmethyl]-1,3-dihydro-indol-2-one]
COc1nccc(N2C(=O)C(c3cc(C)c(O)c(C)c3)(c3cc(C)c(O)c(C)c3)c3ccccc32)n1 [Example 143, 3,3-Bis-(4-hydroxy-3,5-dimethyl-phenyl)-1-(2-methoxy-pyrimidin-4-yl)-1,3-dihydro-indol-2-one]
